Source: patent US20050271692A1, “Topical cosmetic compositions” (Cosmeceutic Solutions Pty. Ltd., priority 2002, published 2005)

Tests used:
[1] = In vitro skin diffusion study, flow-through diffusion cells; type: in vitro ADME, human; settings: o/w cream with 2% octyl salicylate vs control cream without, 24 hours, 32° C, receptor 20% EtOH in water, p<0:05
Experimental: In vitro diffusion experiments were performed using stainless steel flow-through diffusion cells, using human epidermis maintained at 32° C. The receptor solution consisted of 20% EtOH in Milli-Q water. Eight cells for each condition were treated with 100 mg of appropriate donor phase. Samples were collected at appropriate time points and analysed by high performance liquid chromatography (HPLC).

[2] = In vitro skin tape-stripping study; type: in vitro ADME, human; settings: o/w cream with octyl salicylate vs control cream without; 10 hours after application; 20 tape strips
Experimental: Experiments were performed using full thickness human skin, after removal of the subcutaneous layer. Each skin sample was treated with 40 mg of appropriate donor phase. Serial sampling of the skin was completed at different time points after donor application, by tape stripping (3M Corp Adhesive tape) with a pressure load of 240 g/cm^2. Each tape strip removed approximately 1 layer of stratum corneum, and in each case, 20 tape strips were performed. Tape strips were extracted with methanol: chloroform and analysed by high performance liquid chromatography (HPLC).

Row | Compound | increase of the cumulative amount across human epidermis compared with the control formulation [1] [%] | amount in the upper and middle regions of the stratum corneum (tape strips) [2]
1 | O=c1c(-c2ccc(O)cc2)coc2cc(O)cc(O)c12 [genistein] | 39 | 
2 | O=C(O)CC(O)(CC(=O)O)C(=O)O [citric acid] |  | increase the amount
3 | COC1=C(OC)C(=O)C(C/C=C(\C)CC/C=C(\C)CC/C=C(\C)CC/C=C(\C)CC/C=C(\C)CC/C=C(\C)CC/C=C(\C)CC/C=C(\C)CC/C=C(\C)CCC=C(C)C)=C(C)C1=O [CoQ10, Coenzyme Q10] |  | increase the amount
